The text below walks through data of US20250319067A1, “Improved Pharmacokinetics of Tryptamine Prodrugs” (Reunion Neuroscience, Inc., priority 2023, published 2025).

Some results are limits rather than exact numbers.

As usually defined, the EC50 is the concentration at which the effect is half-maximal. As a reminder, the IC50 is the point on the concentration scale where inhibition reaches its midpoint. Usually Ki stands for a measure of affinity in units of concentration, obtained from inhibition or displacement.

The test system of data set [1] is cytochrome P450 (CYP) enzymes, FMO and MAO enzymes. The data set can be described thus: Recombinant human enzymes (Supersomes) substrate assay. The format is in vitro ADME.
For data set [2], the system named is healthy females. The data set is described as follows: Phase 1 FIH study: Mystical Experience Questionnaire (MEQ30). The format is in vivo, human. How it is done:
The study was a double-blind, randomized, placebo-controlled Phase 1 single ascending dose study in up to 6 cohorts in healthy females. Eligibility was assessed during a screening period of up to 28 days prior to enrollment. For the treatment period, subjects were admitted to the clinical research unit (CRU) one day prior to the dosing (Day −1). On Day 1, all subjects will received the assigned SC dose of RE104 HCl or placebo in a fed state (after domiciling overnight and consuming a planned evening meal on Day −1 and morning meal on Day 1 while at the CRU). Subjects were allowed to select snacks from a planned menu from 4 hours following dosing. Subjects were discharged from the clinic on Day 2 (−24 hours post-dose) after all required study procedures were completed and if deemed medically fit. Subjects returned to the clinic on Day 10 (±2 days) for a follow up visit.
The Mystical Experience Questionnaire (MEQ30) is a validated questionnaire that assesses individual episodes of a mystical experience produced by classic hallucinogens (Barrett et al. 2015). The validated MEQ30 uses thirty questions across 4 areas of experience: (i) Mystical (including items concerning internal unity, external unity, noetic quality, and sacredness); (ii) Positive mood; (iii) Transcendence of time and space; and (iv) Ineffability. The subjects will be asked to rate each item of the MEQ30 on a 6-point scale. FIG. 3 sets out the revised MEQ30 that was used.

Data set [3] can be described thus: Conversion in aqueous solution. As to conditions: as a function of pH. The data set is classed as physicochemical.
Data set [4] has as its system rat hepatocytes. The data set is described as follows: Hepatocyte intrinsic clearance, rat. The data set is classed as in vitro ADME. The source says: In human, rat, rabbit, dog and monkey hepatocytes, the metabolite profile of RE104 was qualitatively similar across these species with only minor differences.
The target in data set [5] is human recombinant 5-HT2A receptors (Homo sapiens, UniProt P28223). The data set is described as follows: 5-HT2A cellular agonist effect assay (IP1, HTRF). The format is cell-based. Details: host or cells: HEK-293. For orientation: TR-FRET usually uses a lanthanide donor and a delayed reading to cut background.
Sequence of human recombinant 5-HT2A receptors (P28223 whole entry): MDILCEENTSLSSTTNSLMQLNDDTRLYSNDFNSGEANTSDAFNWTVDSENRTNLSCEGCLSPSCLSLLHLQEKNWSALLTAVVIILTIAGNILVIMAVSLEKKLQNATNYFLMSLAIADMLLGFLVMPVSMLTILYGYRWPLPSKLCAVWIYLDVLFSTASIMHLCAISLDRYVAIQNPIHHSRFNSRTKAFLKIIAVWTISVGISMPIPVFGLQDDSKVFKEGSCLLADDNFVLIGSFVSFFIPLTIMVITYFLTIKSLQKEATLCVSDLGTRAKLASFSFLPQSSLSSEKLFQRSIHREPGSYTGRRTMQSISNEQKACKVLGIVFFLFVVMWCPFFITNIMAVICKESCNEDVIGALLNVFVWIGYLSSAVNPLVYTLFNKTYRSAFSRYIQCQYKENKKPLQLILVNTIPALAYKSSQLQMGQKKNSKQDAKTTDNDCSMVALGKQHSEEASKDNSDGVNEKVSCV
Description: Activation was calculated as a percentage of the response to the positive control (10 μM 5-HT).
EC50 and IC50 values were determined by nonlinear regression analysis of the concentration-response curves generated with mean replicate values using Hill equation curve fitting. For all receptor pharmacology assays, data were analyzed with software developed at Cerep (Hill software, Celle-Lévescault, France) and validated by comparison with data generated by the commercial software SigmaPlot® 4.0 for Windows®(01997 by SPSS Inc).
Data set [6] is described as follows: Non-GLP single dose, dose range study in rats (MTD). Conditions: rat, in vivo, sc. Here is the method: Non-GLP single dose, dose range studies with RE104 HCl were performed in rats and dogs to explore toxicity and establish a maximum tolerated dose (MTD) by SC injection. The rat study explored dosing with two formulations, water for injection (WFI) at pH 3-4 and phosphate buffered saline (PBS) with a final formulation pH of 4.5-5. Single doses of 20 to 300 mg/kg formulated in WFI produced dose-dependent pharmacologically related systemic serotonergic clinical signs. Similarly, SC administration with doses of 25 to 225 mg/kg RE104 formulated in PBS caused clinical signs of SS around 1 hour with recovery by 24 hours.
Clinical signs were reversible by Recovery Day 13 (Study Day 14). Microscopic injection site pathology was seen following a single dose of 225 mg/kg. The MTD in the rat for RE104 in WFI was 150 mg/kg and in PBS was 75 mg/kg.

For data set [7], the target named is human recombinant 5-HT2B receptors (Homo sapiens, UniProt P41595). The data set is described as follows: 5-HT2B agonist radioligand binding assay ([125I]DOI).
Sequence of human recombinant 5-HT2B receptors (P41595 whole entry): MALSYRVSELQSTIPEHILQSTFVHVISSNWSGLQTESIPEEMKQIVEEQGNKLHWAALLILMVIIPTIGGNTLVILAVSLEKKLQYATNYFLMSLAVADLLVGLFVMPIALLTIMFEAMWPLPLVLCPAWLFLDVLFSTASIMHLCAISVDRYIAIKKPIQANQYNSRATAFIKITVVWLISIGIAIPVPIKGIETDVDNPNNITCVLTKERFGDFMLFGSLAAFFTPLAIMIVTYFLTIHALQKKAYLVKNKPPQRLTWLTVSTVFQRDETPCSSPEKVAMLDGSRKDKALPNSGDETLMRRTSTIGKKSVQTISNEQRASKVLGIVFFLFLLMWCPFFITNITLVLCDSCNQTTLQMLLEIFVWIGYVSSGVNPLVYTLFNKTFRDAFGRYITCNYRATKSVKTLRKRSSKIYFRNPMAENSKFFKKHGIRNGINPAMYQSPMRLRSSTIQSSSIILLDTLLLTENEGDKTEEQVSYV
Description: Increasing concentrations of RE104 were incubated with 0.2 nM [^125I]DOI in CHO cell cultures expressing human recombinant 5-HT2B receptors.
Radioligand concentration was measured by scintillation counting; compound binding was calculated as percent inhibition of the binding of [^125I]DOI. In agonist activity assays, test concentrations of RE104 were incubated with HEK-293 cells expressing human recombinant 5-HT2A receptors; IP1 production was detected using homogeneous time-resolved fluorescence. Activation was calculated as a percentage of the response to the positive control (10 μM 5-HT).
Inhibition constants were calculated by using the Cheng-Prusoff equation Ki=IC50/(1+L/KD), where L=radioligand concentration and KD=radioligand affinity for the receptor (determined with a Scatchard plot). In the functional activity assay test concentrations of RE104 were 10 nM, 30 nM, 100 nM, 300 nM, 1 μM, 3 μM, 10 μM, and 30 μM. EC50 and IC50 values were determined by nonlinear regression analysis of the concentration-response curves generated with mean replicate values using Hill equation curve fitting.
The nature of data set [8]: Rat plasma PK after IV, PO, SC RE104 or 4-OH-DiPT (Example 3). Conditions: 2 mg/kg RE104 IV, vs AUC0-- of equimolar IV 4-OH-DiPT.
Description: The concentration of test compounds was determined in plasma by LC-MS/MS. […] Pharmacokinetic parameters for each analyte and route of administration were estimated from the plasma concentration-versus-time curves for each animal. Head-twitch response (HTR), also referred to as wet dog shakes, was assessed by observing rats for automatisms consisting of rapid and alternating head rotations (González-Maeso et al. and Halberstadt et al.); HTRs were manually counted using 10-minute intervals up to 2 hours after dosing and again at 3, 3.5, and 4 hours after dosing.
Pharmacokinetic parameters were calculated using Phoenix WinNonlin, version 6.3 or 8.2 (Certara, Princeton, NJ, USA).
For rat PK assessments, approximately 0.25 mL blood was serially collected at 8 time points over 6 hours (5, 15, 30, and 45 minutes, and 1, 2, 4, and 6 hours after dosing) via a surgically placed carotid artery catheter and immediately transferred to tubes containing K2EDTA on ice. For dog PK assessments, approximately 0.5 mL of blood was collected via superficial vein before dose and at 5 (for IV and SC injections only), 15, and 30 minutes and 1, 2, 4, 8, 16, 24, 48, and 72 hours post dose into tubes containing K2EDTA with 10 mM Dichlorvos as the anticoagulant and stabilizer, respectively. […]

Take `CC(C)N(CCc1c[nH]c2cccc(OC(=O)CCCC(=O)O)c12)C(C)C` [RE104]: the “substrate for cytochrome P450, FMO or MAO isoforms” value in data set [1] is reported as “not a substrate”. The “Participants with MEQ total score ≥60%” value in data set [2] (RE104 5.5 mg, n 6) came to 0%; in data set [2] (RE104 11 mg, n 6), 50%; in data set [2] (RE104 22 mg, n 6), 16.7%; in data set [2] (RE104 33 mg, n 9), 66.7%; in data set [2] (RE104 38 mg, n 6) it was 83.3%; in data set [2] (RE104 44 mg, n 3) it was 100%. Moreover, the “conversion in aqueous solution” value in data set [3] is “slow conversion”. Further, the “in vitro intrinsic clearance (CLint)” value in data set [4] turned out to be 6.66 mL/hr/106 cells. The half-maximal effective concentration (EC50) in data set [5] is greater than 30000 nM. The MTD at 14 days in data set [6] (formulated in PBS) is 75 mg/kg; in data set [6] (formulated in WFI), 150 mg/kg. Further, the IC50 in data set [7] amounted to 740 nM. For the same molecule, the inhibitory constant (Ki) in data set [7] (read-out: binding Ki at the 5-HT2B receptor, CHO cells) came out at 1800 nM. Moreover, the “fm (fraction metabolized)” value in data set [8] is 96.7%.
